Measurements as given in patent US8058425B2, “Purine derivatives as kinase inhibitors” (Eli Lilly and Company, priority 2002, dated 2011).

How the values were obtained:
3T3-L1 adipocytes = assay: Glycogen Synthesis Assay; format: cell-based; conditions: 0.1 μM
Protocol: The glycogen synthesis assay measures the increase in the production of glycogen both in the absence and in the presence of insulin in the cells. This test is done according to standard protocols. (Berger, J. and Hayes, N. S., Anal. Biochem., 261, 159-163 (1998)). Briefly, 3T3-L1 adipocytes are plated and differentiated in a 96-well plate at 25,000 cells/well. The plate is serum-starved overnight. The serum-starvation media is removed just prior to assay, and the plate is washed with 100 μl/well Krebs-Ringer-Hepes buffer (KRBH). The KRBH is removed and 50 μl of compound (twice the amount of the final concentration) is added to the assay plate. Next, 50 μl of ^14C-labeled glucose is added to the assay plate at 0.1 μCi/well. The plate is then incubated at 37° C. for 2 hours.
The plate is washed with 100 μL/well of PBS, and the cells are lysed with 75 μl/well of 1N NaOH. The plate is heated at 70° C. for 20 minutes. An aliquot (50 μl) of the supernatant is transferred from the assay plate to a Millipore FC filter plate containing 120 μl/well of ice-cold ethanol. The plate is allowed to stand for 2 hours at 4° C. to facilitate precipitation. The ethanol is removed from the filter plate via a vacuum manifold, and the plate is washed with 100 uL/well of ice-cold 70% ethanol. […] The plate was then counted on a Packard Topcount. […]

ZDF rats = assay: Glucose Lowering Assay; format: in vivo, rat; conditions: oral gavage, dose of 10 mg/kg
Protocol: The glucose lowering assay is an in vivo test that measures the effect of the test compound on blood glucose and triglycerides relative to insulin. (ELDAR-FINKLEMAN, H., et al., Expression and Characterization of Glycogen Synthase Kinase-3 Mutants and Their Effect on Glycogen Synthase Activity in Intact Cells, Proc. Nat. Acad. Sci, 93, 10228-10233 (1996)). Briefly, ZDF rats (Charles River, Inc.) at six weeks of age are housed individually with free access to food and water. Rats are dosed with drug once daily by oral gavage, with the compound prepared as a suspension in 1% caboxymethylcellusolve/0.25% Tween 80 (CMC-Tween). Vehicle controls are dosed with CMC-Tween only. The duration of study varied according to the protocol used, with acute dosing studies lasting one day and dose escalation studies lasting seven days. Body weights and food consumption measurements are also performed once a week for seven-day studies. For measurement of blood glucose and triglycerides, blood samples of 600 μl are collected by the tail snip method. […]

[1] = tested on: AG04160C FAD lymphoblast cells; assay: Beta-Catenin Protection Assay; format: cell-based, human; conditions: 0.1 μM, 24 hours
Protocol: The beta-catenin assay is the fold induction over basal beta-catenin and is performed according to standard protocols (Hedgepeth, C. M., Dev. Biol., 185, 82-91 (1997); Chen, G., et al., J. Neurochem., 72, 1327-1330 (1999); Hong, M., et al., J. Biol. Chem., 272, 25326-25332 (1997)).
The human familial Alzheimer's disease (FAD) presenilin-1 AG04160C lymphoblast cell line (Coriell Cell Repository, Camden, N.J.) is maintained as a suspension culture in RPMI 1640 (with L-Glutamine) supplemented with 10% fetal bovine serum and 1% penicillin-streptomycin in an atmosphere of 37° C. and 5% CO2. The AG04160C FAD lymphoblast cells are seeded in T-25 cm^2 flasks at 2.5 to 5.0×10^5 cells/ml in a total volume of 10 ml. […] The total protein concentration in whole cell lysate samples is determined using the BCA method (Pierce). Next, 15 μg of sample is loaded on a 10% Bis-Tris NuPage gel and transferred to a pure nitrocellulose membrane followed by β-catenin immunoblot analysis using a (3-catenin specific antibody (Transduction Labs). The β-catenin accumulation/stability is then quantified following densitometry analysis of protein bands (Kodak Digital Science). Final results are reported as fold induction over basal β-catenin. The compound of Example 121 was tested in this assay and induced a 9.8-fold induction of β-catenin at 0.1 μM.

[2] = biological target: T1, GSK-3β kinase activity in brain cortex tissue (Mus musculus, UniProt Q9WV60); assay: Ex Vivo Brain Assay; format: in vivo; conditions: oral dosing of mice, dose of 20 mg/kg
T1 construct: brain cortex tissue is dissected and homogenized in freshly prepared lysis buffer; from tissue; host or cells: mouse (PDAPP or CD-1) brain cortex, cytosolic homogenate
T1 sequence (Q9WV60 whole entry): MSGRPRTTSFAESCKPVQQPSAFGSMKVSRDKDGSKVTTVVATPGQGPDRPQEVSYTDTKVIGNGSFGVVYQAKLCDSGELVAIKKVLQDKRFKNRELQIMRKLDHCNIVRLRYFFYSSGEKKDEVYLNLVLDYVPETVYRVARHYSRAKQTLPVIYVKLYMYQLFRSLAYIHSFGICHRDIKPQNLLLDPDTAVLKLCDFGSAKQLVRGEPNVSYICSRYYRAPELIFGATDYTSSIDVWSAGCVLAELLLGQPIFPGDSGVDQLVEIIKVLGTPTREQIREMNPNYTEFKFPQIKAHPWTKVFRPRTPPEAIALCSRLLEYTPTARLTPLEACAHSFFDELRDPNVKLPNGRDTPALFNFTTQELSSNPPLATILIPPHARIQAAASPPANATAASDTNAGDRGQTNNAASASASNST
Protocol: The ex vivo brain assay assesses the GSK-3β kinase activity of the test compound in brain cortex tissue according to standard protocols (Wang, et al., Anal. Biochem., 220, 397-402 (1994)).
The ex vivo GSK-3β kinase activity of a compound is assayed following oral dosing of 2 to 3 month old PDAPP or CD-1 mice. After a 20 mg/kg, 24-hour dose, followed by an additional three-hour dose, brain cortex tissue is dissected and homogenized in freshly prepared lysis buffer (10 mM K2HPO4 pH 7.2, 1 mM EDTA, 5 mM EGTA, 10 mM MgCl2, 50 mM β-Glycerophosphate, 1 mM Na3VO4, 2 mM DTT, 1 μM Microcystin, COMPLETE protease inhibitor tablet, no detergent). Following a thirty-minute incubation on ice, cortex homogenate samples are centrifuged (100,000 G) for 30 minutes at 4° C. (Ahmed, N. N., et al., Oncogene, 8, 1957 […]). The total protein concentration of homogenate is determined using the BCA method (Pierce). GSK-3β activity in cytosolic homogenate from vehicle- and compound-treated mice is then assayed. The kinase reaction occurs in a 50 μl total volume containing 20 mM MOPS pH 7.4, 25 mM β-glycerol phosphate, 5 mM EGTA, 1 mM NA3VO4, 1 mM DTT, 15 mM MgCl2, 100 μM cold ATP, 200 μM CREB peptide, 10 μL cytosolic cortex brain homogenate, and 5 μCi γ-^33P-ATP. […] The following day, the filter plate is read for ^33P on Top Count (Packard). […]

female Fischer 344 rats = assay: Bone Deposition; format: in vivo, rat; set-up: key: +: hypertrophy and proliferation of osteoblasts with production of osteoid observed; −: hypertrophy and proliferation of osteoblasts with production of osteoid not observed at this dose; conditions: oral gavage daily for 4 days
Protocol: Vehicle or test compound in vehicle (1% Carboxymethylcellulose sodium, 0.25% Polysorbate 80, and 0.05% Dow Corning Antifoam 1510-US in purified water) is administered orally by gavage to female Fischer 344 rats daily for 4 days with three rats in each dosage group. The rats are delivered for necropsy and sections of formalin-fixed, paraffin-embedded bone are examined microscopically to evaluate osteoblast proliferation and deposition of osteoid.
The compounds in the following tables were tested essentially as described above and hypertrophy and proliferation of osteoblasts along surfaces of medullary trabecula and the cortical periosteum accompanied by production of osteoid was observed.
The compound of Example 365 was tested again essentially as described above at 0, 3, 10, and 30 mg/kg with four rats at each dosage level for 21 days. The vertebra and the femur were submitted for analysis of bone mineral density (BMD), bone mineral content (BMC), and cross sectional area following 21 days of daily dosing with the compound of Example 365.

SMILES | increase of glycogen synthesis (3T3-L1 adipocytes; in the absence of insulin) [fold] | increase of glycogen synthesis (3T3-L1 adipocytes; in the presence of insulin) [fold] | glucose lowering (ZDF rats) [%] | fold induction over basal β-catenin [1] [fold] | inhibition of kinase activity (ex vivo GSK-3β, brain cortex) [2] [%] | hypertrophy and proliferation of osteoblasts with production of osteoid (female Fischer 344 rats; 50 mg/kg) | hypertrophy and proliferation of osteoblasts with production of osteoid (female Fischer 344 rats; 150 mg/kg)
Cl.O=C1NC(=O)C(c2cc(F)cc3ccoc23)=C1c1cn2c3c(cccc13)CNCC2 [Example 121, 3-(6,7-dihydro-6H-[1,4]diazepino[6,7,1-hi]indol-1-yl)-4-(5-fluorobenzofur-7-yl)-2,5-dioxopyrrole hydrochloride] | 3.7 | 6.4 | 56 | 9.8 | 30 | – | –
O=C1NC(=O)C(c2cnc3ccccn23)=C1c1cn2c3c(cccc13)CN(c1ncccn1)CC2 [Example 560, 3-(6-(pyrimidin-2-yl)-6,7-dihydro-6H-[1,4]diazepino[6,7,1-hi]indol-1-yl)-4-(imidazo[1,2-a]pyridin-3-yl)pyrrole-2,5-dione] | – | – | – | – | – | + | +
